# Measured values: US20250137032A1, “TWO-COMPONENT SYSTEMS FOR USE IN CELL-FREE GENE EXPRESSION” (priority 2023, published 2025)
# Entries after “also recorded” stand apart in the source; their conditions may differ.
# How the values were obtained:
# [1] = target: T1, NarX (Escherichia coli, UniProt P0AFA2, T450I/V366A); assay: Cell-free NarX-L nitrate sensing, nanoluciferase reporter luminescence; assay type: biochemical, E. coli
# T1 construct: All genes were; made in house; host or cells: cell-free expression in situ, myTXTL E. coli extract (Arbor Biosciences), with synthetic lipid vesicles
# Text: As a first step towards understanding how TCSs can be integrated into cell-free systems, we tested the functional expression of NarX and NarL. The analyte for this sensor, nitrate, is a known ground water contaminate (30), serves as a convenient input, and previous work has characterized and engineered NarL mutants and its cognate promoter (26), ensuring that downstream gene transcription is a result of cell-free expressed NarL. We assembled cell-free reactions containing the myTXTL system (31), three DNA templates, liposomes, and assessed the reactions in response to nitrate addition. Two templates contained genes for either NarX or a NarL mutant (26) under the control of T7 RNA polymerase. The third template served as a genetic reporter for TCS signaling and contained a reporter gene (nanoluciferase) under the control of a promoter to which NarL binds (32). Finally, we included 100 nm lipid vesicles composed of 1,2-dimyristoyl-sn-glycero-3-phosphocholine (DMPC) into which NarX could integrate (FIG. 1A). Upon addition of nitrate, NarX should phosphorylate NarL, which should then bind the reporter plasmid and induce downstream luciferase expression (FIG. 1A).
# (§1) Protein expression was performed using the myTxTl system (Arbor Biosceinces). 5 μL reactions were assembled with 10 mM lipid, 0.1 nM plasmid encoding T7 RNA polymerase, 9.9 nM plasmids encoding NarX, NarL, and reporter gene (nano luciferase or GFP) in specified ratios, and various concentration of ligands. Cell-free reactions were allowed to progress at 30° C. for 16 hours. Luciferase luminescence was read using the NanoGlo luciferase system and GFP fluorescence (ex. 480 nm, em. 507 nm) was read using a Molecular Devices Spectra Max i3 plate reader. To calculate fold change, luminescence values in the presence of nitrate were divided by the luminescence values in the absence of nitrate for each replicate.
# [2] = target: T1, NarX; assay: Cell-free NarX-L system encapsulated in giant unilamellar vesicles; assay type: biochemical, E. coli; conditions: 1 mM nitrate, GUVs of POPC:cholesterol with rhodamine lipid, 30° C. 16 hours, with RNase
# Text: Over the last decade, many promising cell-free systems have been developed, enabling the delivery and sensing of a wide array of ligands in non-ideal environments. Cell-free systems have been encapsulated and administered to mice (47), lyophilized and used in resource limited settings (6, 7), and integrated into wearable materials to sense environmental contaminants (8). Towards the goal of creating cell-mimetic particles which can sense environmental stimuli in complex environments, such as the body, we encapsulated our cell-free system into giant unilamellar vesicles using the emulsion transfer method (FIG. 5A). We encapsulated cell-free extract containing plasmids encoding NarX, NarL, and the downstream protein (luciferase or mEGFP) into membranes composed of 1 POPC: 1 cholesterol and a rhodamine conjugated lipid. We hypothesized that by encapsulating cell-free reaction components into vesicles, NarX could insert into membranes and initiate signaling in response to exogenously added nitrate. […]
# For samples containing the luciferase plasmid, 0.5 μL of NanoGlo Luciferase substrate was added to the reaction, and reactions were read on a Molecular Devices Spectra Max i3 plate reader. […] Images were analyzed using the Nikon NIS software.
# [3] = tested on: cell-free protein synthesis; assay: Cell-free protein synthesis (myTXTL): NarX western blot band intensity and luminescence; assay type: biochemical, E. coli; conditions: increasing ligand concentration; NarX band intensity / luminescence (FIG. 7, FIG. 14)
# Protocol: as §1
# 1 μL of cell-free reaction was diluted to 15 μL in Laemlli buffer and heated at 95° C. for 10 minutes. Samples were then loaded and run on a 12% Mini-PROTEAN TGX Precast Protein Gel (Bio-Rad) at 150 V for 90 minutes. Wet transfer was performed onto a PVDF membrane (Bio-Rad) for 45 min at 100 V. Membranes were then blocked for an hour at room temperature in 5% milk in TBST (pH 7.6:50 mM Tris, 150 mM NaCl, HCl to pH 7.6, 0.1% Tween) and incubated for 1 hour at room temperature or overnight at 4° C. with primary solution (anti-Flag (Sigma F1804) or anti-Myc (ab32), diluted 1:1000 in 5% milk in TBST). Primary antibody solution was decanted, and the membrane was washed three times for 5 minutes in TBST and then incubated in secondary solution at room temperature for 1 hour (HRP-anti-Mouse (CST 7076) diluted 1:3000 in 5% milk in TBST). Membranes were then washed in TBST and incubated with Clarity Western ECL Substrate (Bio-Rad) for 5 min. Blots were imaged using an Azure Biosystems c280 imager and band intensities were quantified with ImageJ.
# [4] = target: T1, NarX; assay: Lyophilized NarX-L reactions rehydrated in non-ideal media; assay type: biochemical, E. coli; conditions: 100 μM nitrate; rehydrated with Milli-Q water, lake water or FBS; 30° C.
# Protocol: As a control, we flash froze reactions and allowed them to proceed without lyophilization. […] To remediate this, we lyophilized vesicles and reactions separately. When rehydrating reactions, we rehydrated vesicles with water and then mixed the rehydrated vesicles, lyophilized cell-free components, and rehydration media (water, lake water, or FBS) with or without 100 μM nitrate. We then allowed reactions to proceed at 30° C. […] To deploy biosensors out of the lab, one must understand how quickly they are able to sense a ligand. […] We furthermore envision that these systems could be leveraged to engineer targeted drug delivery systems or for point-of-use biosensing.
# Cell-free reactions were prepared as above, omitting vesicles and ligand. Reactions and vesicles were then flash frozen and lyophilized overnight. Following lyophilization, vesicles were rehydrated in water and cell free reactions were rehydrated in various media, such as Mili-Q water, Lake Water from Lake Michigan, and 50% FBS containing either 100 μM nitrate or an equivalent volume of water. Vesicles and reactions were allowed to rehydrate for 30 minutes on ice. Finally, vesicles were added to each reaction to bring the total volume to 5 μL and reactions were allowed to proceed at 30° C. for 16 hours.
# [5] = Dynamic light scattering of 100% POPC vesicles in the presence of ligands (liposome stability); assay type: physicochemical; conditions: 100% POPC vesicles in the presence of 1 mM ligand
# T1 sequence (P0AFA2 other isoform, or with tags, fused parts or gaps V366A/T450I): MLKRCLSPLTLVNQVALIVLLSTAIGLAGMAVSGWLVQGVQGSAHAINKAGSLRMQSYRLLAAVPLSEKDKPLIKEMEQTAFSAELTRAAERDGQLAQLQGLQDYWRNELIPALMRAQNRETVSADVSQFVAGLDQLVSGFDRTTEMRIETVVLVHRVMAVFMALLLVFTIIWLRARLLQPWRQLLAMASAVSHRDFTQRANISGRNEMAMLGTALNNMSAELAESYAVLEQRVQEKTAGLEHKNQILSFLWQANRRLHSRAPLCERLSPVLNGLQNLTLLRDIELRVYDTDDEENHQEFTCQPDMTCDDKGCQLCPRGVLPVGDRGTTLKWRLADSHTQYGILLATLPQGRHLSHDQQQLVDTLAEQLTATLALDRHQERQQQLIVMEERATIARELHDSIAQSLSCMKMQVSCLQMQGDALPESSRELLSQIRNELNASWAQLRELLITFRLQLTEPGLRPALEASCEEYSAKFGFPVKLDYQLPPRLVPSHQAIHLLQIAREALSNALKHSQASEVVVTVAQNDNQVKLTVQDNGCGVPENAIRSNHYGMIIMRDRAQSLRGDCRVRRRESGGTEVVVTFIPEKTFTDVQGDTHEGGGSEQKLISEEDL
smiles,measurement,setting,value
"O=[N+]([O-])[O-].[Na+] [Nitrate, sodium nitrate]",increase in luminescence in nitrate titration,[1]; absence of vesicles (FIG. 1C),2 fold
same,increase in luminescence compared to reactions run in the absence of nitrate,"[1]; all components present, DMPC vesicles (FIG. 1B)",~3 fold
same,time to differentiate a positive from a negative signal (luminescence over time),"[1]; nitrate sample vs water sample, p<0.03, n=2 (FIG. 18)",6.5 h
same,nitrate concentration at which the cell-free system lost sensitivity,[1]; nitrate titration,10 mM
same,detection of nitrate at levels as low as,"[1]; nitrate titration, cell-free system",10 µM
same,specificity of activation by ligand,"[1]; wild-type NarX, nitrate vs nickel (FIG. 4F)",specifically turn ‘on’
same,sensing of exogenously added nitrate by encapsulated sensor (microscopy and bulk plate reader),[2],able to sense exogenous nitrate
same,effect on cell-free protein expression,[3],inhibit protein synthesis; also recorded: inhibits protein expression
same,sensing of nitrate after lyophilization and rehydration,[4],could sense 100 μM nitrate in all conditions
same,Diameter (nm),[5],123.26 nm
same,P.D.I.,[5],0.278
